{
  "source": "patent US20260166039A1",
  "about": "(SCHRÖDINGER, INC., priority 2022, published 2026)",
  "data": [
    {"target": "T1, Wee1 kinase domain (Homo sapiens, UniProt P30291)", "T1 construct": "Wee1 kinase domain was purchased from Carna (catalog #05-177); purchased Carna 05-177", "T1 sequence (P30291 299-569 limits assumed)": "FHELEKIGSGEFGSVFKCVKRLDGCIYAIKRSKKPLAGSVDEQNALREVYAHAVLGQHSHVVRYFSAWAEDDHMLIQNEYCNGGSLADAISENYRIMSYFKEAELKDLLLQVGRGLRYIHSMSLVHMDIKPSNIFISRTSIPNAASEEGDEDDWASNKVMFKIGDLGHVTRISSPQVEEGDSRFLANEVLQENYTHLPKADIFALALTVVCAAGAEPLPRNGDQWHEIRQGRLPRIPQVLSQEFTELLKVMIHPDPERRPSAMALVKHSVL", "test": "Wee1 Kinase Biochemical Assay (ADP-Glo)", "conditions": "1 nM Wee1 enzyme, 15 uM ATP, 4 hours at 25° C", "how_it_was_run": "(§1)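 Kinase domain (1 nM) incubated 4 h at 25 °C with 15 uM ATP and 2 ng/mL Poly(Lys,Tyr 4:1) in 40 mM Tris-HCl, 20 mM MgCl2, 0.1 mg/mL BSA, 2 mM DTT. ADP formation read by ADP-Glo luminescence; percent inhibition normalized to DMSO and saturating reference-inhibitor controls.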", "units": {"IC50": "nM"}, "values": [
      {"smiles": "CN(C)[C@H]1CCN(c2ccc(Nc3ncc4c(n3)N(c3ccccn3)[C@@H]3CC(C)(C)OC[C@]43C)cc2)C1", "note": "[Example 820, (4bR,8aR)-N-(4-((S)-3-(dimethylamino)pyrrolidin-1-yl)phenyl)-4b,7,7-trimethyl-9-(pyridin-2-yl)-4b,5,7,8,8a,9-hexahydropyrano[3′,4′:4,5]pyrrolo[2,3-d]pyrimidin-2-amine]", "IC50": "< 10"},
      {"smiles": "CC1(C)C[C@H]2N(c3cccc(N=S(C)(C)=O)n3)c3nc(Nc4ccn(C5CCN(C6COC6)CC5)c(=O)c4)ncc3[C@@]2(C)CO1", "note": "(single isomer, unassigned) [Example 824]", "IC50": "< 10"}
    ]},
    {"target": "T1, Wee1 kinase domain", "test": "Wee1 Kinase Biochemical Assay (ADP-Glo)", "conditions": "Wee1 kinase domain, 15 uM ATP, ADP-Glo", "how_it_was_run": "as §1", "units": {"IC50": "nM"}, "values": [
      {"smiles": "CNCc1cccc(N2c3nc(Nc4ccc([C@@H]5CCC(=O)N5C)nc4)ncc3[C@]3(C)COC(C)(C)C[C@H]23)n1", "note": "(single isomer, unassigned) [Example 95]", "IC50": "≥ 1000"},
      {"smiles": "CNCc1cccc(N2c3nc(Nc4ccc(N5CCC(F)(F)CC5)cc4)ncc3[C@]3(C)COC(C)(C)C[C@H]23)n1", "note": "(single isomer, unassigned) [Example 15]", "IC50": "10 to 100"},
      {"smiles": "CC1(C)C[C@H]2N(c3cccc([C@@H]4CCCN4)n3)c3nc(Nc4ccn(C5CCOCC5)c(=O)c4)ncc3[C@@]2(C)CO1", "note": "(single isomer, unassigned) [Example 392]", "IC50": "< 10"},
      {"smiles": "CN1CCN(c2ccc(Nc3ncc4c(n3)N(c3cccc(C(C)(C)O)n3)[C@H]3CC(C)(C)OC[C@@]43C)cc2)CC1", "note": "(single isomer, unassigned) [Example 3]", "IC50": "100 to 1000"},
      {"smiles": "C[C@H]1COC(=O)N1c1cccc(N2c3nc(N)ncc3[C@]3(C)COC(C)(C)C[C@H]23)n1", "note": "(single isomer, unassigned) [Example 357]", "IC50": "100 to 1000"},
      {"smiles": "CNCc1cccc(N2c3nc(Nc4ccc([C@@H]5CCCO5)cc4)ncc3C3(C)COC(C)(C)C[C@H]23)n1", "note": "(single isomer, unassigned) [Example 57]", "IC50": "10 to 100"},
      {"smiles": "CN[C@@H]1CCN(c2ccc(Nc3ncc4c(n3)N(c3cccc(N5C(=O)OC[C@@H]5C)n3)[C@H]3CC(C)(C)OC[C@@]43C)cc2)C1", "note": "(single isomer, unassigned) [Example 318]", "IC50": "10 to 100"},
      {"smiles": "CC1(C)C[C@H]2N(c3cccc(N=S(C)(C)=O)n3)c3nc(Nc4cn5ccnc5cn4)ncc3[C@@]2(C)CO1", "note": "(single isomer, unassigned) [Example 382]", "IC50": "10 to 100"},
      {"smiles": "CN1CCC(c2cc(Nc3ncc4c(n3)N(c3cccc(N=S(C)(C)=O)n3)[C@H]3CC(C)(C)OC[C@@]43C)on2)CC1", "note": "(single isomer, unassigned) [Example 203]", "IC50": "100 to 1000"},
      {"smiles": "C[C@H]1COC(=O)N1c1cccc(N2c3nc(Nc4cnn(C5CCN(C)CC5)c4)ncc3[C@]3(C)COC(C)(C)C[C@H]23)n1", "note": "(single isomer, unassigned) [Example 242]", "IC50": "10 to 100"},
      {"smiles": "CNCc1ccc(Nc2ncc3c(n2)N(c2cccc(N4C(=O)OC[C@@H]4C)n2)[C@H]2CC(C)(C)OC[C@@]32C)cc1", "note": "(single isomer, unassigned) [Example 359]", "IC50": "10 to 100"},
      {"smiles": "CN1CC[C@@H](Oc2ccc(Nc3ncc4c(n3)N(c3cccc(N=S(C)(C)=O)n3)[C@H]3CC(C)(C)OC[C@@]43C)cc2)C1", "note": "(single isomer, unassigned) [Example 160]", "IC50": "100 to 1000"},
      {"smiles": "CNCc1cccc(N2c3nc(Nc4ccc([C@]5(C)CCN(C)C5=O)cc4)ncc3[C@]3(C)COC(C)(C)C[C@H]23)n1", "note": "(single isomer, unassigned) [Example 77]", "IC50": "100 to 1000"}
    ]},
    {"target": "T1, Wee1 kinase domain", "test": "Wee1 Kinase Biochemical Assay (ADP-Glo)", "conditions": "class symbols; 1 nM Wee1 enzyme, 15 uM ATP, 4 hours at 25° C.", "how_it_was_run": "as §1", "units": {"IC50": "nM"}, "values": [
      {"smiles": "CNCc1cccc(N2c3nc(Nc4ccc(-c5cnn(C)c5)nc4)ncc3[C@]3(C)COC(C)(C)C[C@H]23)n1", "note": "(single isomer, unassigned) [Example 459]", "IC50": "100 to 1000"},
      {"smiles": "CNCc1cccc(N2c3nc(Nc4ccn(C)c(=O)c4)ncc3[C@]3(C)COC(C)(C)C[C@H]23)n1", "note": "(single isomer, unassigned) [Example 455]", "IC50": "≥ 1000"},
      {"smiles": "CN1C[C@H]2C[C@@H]1CN2c1ccc(Nc2ncc3c(n2)N(c2cccc(C(C)(C)O)n2)[C@H]2CC(C)(C)OC[C@@]32C)cc1", "note": "(single isomer, unassigned) [Example 414]", "IC50": "100 to 1000"},
      {"smiles": "C[C@H]1COC(=O)N1c1cccc(N2c3nc(Nc4ccc([C@@H]5CCN(C)C5)cc4)ncc3[C@@]3(C)COCC[C@@H]23)n1", "note": "[Example 794, (S)-4-methyl-3-(6-((4bR,8aR)-4b-methyl-2-((4-((S)-1-methylpyrrolidin-3-yl)phenyl)amino)-4b,7,8,8a-tetrahydropyrano[3′,4′:4,5]pyrrolo[2,3-d]pyrimidin-9(5H)-yl)pyridin-2-yl)oxazolidin-2-one]", "IC50": "< 10"},
      {"smiles": "CC[C@]1(O)CCc2ccc(N3c4nc(Nc5ccc(N6C[C@H]7C[C@@H]6CN7C)cc5)ncc4[C@@]4(C)COC(C)(C)C[C@@H]34)nc21", "note": "[Example 789, (S)-7-ethyl-2-((4bR,8aR)-4b,7,7-trimethyl-2-((4-((1R,4R)-5-methyl-2,5-diazabicyclo[2.2.1]heptan-2-yl)phenyl)amino)-4b,7,8,8a-tetrahydropyrano[3′,4′:4,5]pyrrolo[2,3-d]pyrimidin-9(5H)-yl)-6,7-dihydro-5H-cyclopenta[b]pyridin-7-ol]", "IC50": "< 10"},
      {"smiles": "CN1CCN(c2ccc(Nc3ncc4c(n3)N(c3cccc(N=S(C)(C)=O)n3)[C@@H]3CC(C)(C)OC[C@]43C)nc2)CC1", "note": "(single isomer, unassigned) [Example 510]", "IC50": "< 10"},
      {"smiles": "CC1(C)C[C@@H]2N(c3cccc(N4CCOC4=O)n3)c3nc(Nc4ccc(N5CCNCC5)cc4)ncc3[C@]2(C)CO1", "note": "(single isomer, unassigned) [Example 600]", "IC50": "100 to 1000"},
      {"smiles": "CN1C[C@@H]2C[C@H]1CN2c1ccc(Nc2ncc3c(n2)N(c2cccc(N4C(=O)CCC4(C)C)n2)[C@@H]2CC(C)(C)OC[C@]32C)cc1", "note": "[Example 798, 5,5-dimethyl-1-(6-((4bR,8aR)-4b,7,7-trimethyl-2-((4-((1S,4S)-5-methyl-2,5-diazabicyclo[2.2.1]heptan-2-yl)phenyl)amino)-4b,7,8,8a-tetrahydropyrano[3′,4′:4,5]pyrrolo[2,3-d]pyrimidin-9(5H)-yl)pyridin-2-yl)pyrrolidin-2-one]", "IC50": "< 10"},
      {"smiles": "CN1C[C@@H]2CN(c3ccc(Nc4ncc5c(n4)N(c4cccc(N6CCCC6=O)n4)[C@H]4CC(C)(C)OC[C@@]54C)cc3)C[C@@H]2C1", "note": "[Example 695, 1-(6-((4bS,8aS)-4b,7,7-trimethyl-2-((4-((3aR,6aS)-5-methylhexahydropyrrolo[3,4-c]pyrrol-2(1H)-yl)phenyl)amino)-4b,7,8,8a-tetrahydropyrano[3′,4′:4,5]pyrrolo[2,3-d]pyrimidin-9(5H)-yl)pyridin-2-yl)pyrrolidin-2-one]", "IC50": "10 to 100"},
      {"smiles": "CC[C@@]1(O)CCc2ccc(N3c4nc(Nc5ccc(N6CCN(C)CC6)cc5)ncc4[C@@]4(C)COC(C)(C)C[C@@H]34)nc21", "note": "[Example 787, (R)-7-ethyl-2-((4bR,8aR)-4b,7,7-trimethyl-2-((4-(4-methylpiperazin-1-yl)phenyl)amino)-4b,7,8,8a-tetrahydropyrano[3′,4′:4,5]pyrrolo[2,3-d]pyrimidin-9(5H)-yl)-6,7-dihydro-5H-cyclopenta[b]pyridin-7-ol]", "IC50": "< 10"},
      {"smiles": "CN[C@@H](C)c1cccc(N2c3nc(Nc4ccc(N5C[C@H]6C[C@@H]5CO6)cc4)ncc3[C@]3(C)COC(C)(C)C[C@H]23)n1", "note": "(single isomer, unassigned) [Example 578]", "IC50": "100 to 1000"}
    ]}
  ]
}
